Results as given in patent US12540137B2, “N-1 branched alkyl ether substituted imidazo[4,5-c]quinoline compounds, compositions, and methods” (Solventum Intellectual Properties Company, priority 2018, dated 2026).
Like-named read-outs stand apart in the source and are kept apart here.

System: Human peripheral blood mononuclear cells (PBMC)
Assay: Cytokine induction in human cells (PBMC)
Format: cell-based
Conditions: for minimal effective concentration / MEC to Induce Cytokine TNF-alpha: human PBMC, 21-24 hours culture, lowest concentration giving cytokine level at least 2× negative control
Experimental: Whole blood was obtained from healthy human donors and collected by venipuncture into vacutainer tubes or syringes containing EDTA. Human peripheral blood mononuclear cells (PBMC) were purified from the whole blood by density gradient centrifugation. Histopaque 1077 (15 mL, Sigma, St. Louis, MO) was transferred to 6×50 mL sterile polypropylene conical tubes. The Histopaque was overlayed with 15-25 mL of blood diluted 1:2 in Hank's Balanced Salts Solution (HBSS) (Gibco, Life Technologies, Grand Island, NY). The tubes were then centrifuged at 1370 rpm for 30 minutes at 20° C., with no brake (400×g, GH 3.8A Rotor).
The interface (buffy coat) containing the PBMC was collected and placed in a new sterile 50 ml conical polypropylene centrifuge tube. The PBMC were mixed with an equal volume of HBSS (about 20 mL from the interface and about 20 mL of HBSS), and then centrifuged at 1090 rpm, 10 minutes, 20° C., with brake (270×g, GH 3.8A Rotor). After completing centrifugation, the cells were resuspended in 2-3 mL ACK Red blood cell lysis buffer (ammonium chloride potassium solution, Gibco, Life Technologies) and incubated for 2-5 minutes at 20° C. Next, HBSS (40 mL) was added to the cells, and the sample was centrifuged at 270×g for 10 minutes at 20° C. The supernatant was decanted, and the cell pellet was resuspended in 5 mL AIM V Medium (Gibco, Life Technologies). Cell aggregates and debris were removed by filtering the cell solution through a BD Falcon 70 micron nylon cell strainer (BD Biosciences, San Jose, CA).
The number of viable cells was determined by counting with a Miltenyi FACS instrument (Miltenyi Biotec Inc., San Diego, CA) or by using a hemocytometer. For determining cell viability with a hemocytometer, the cells were diluted 1/10 in 0.4% trypan blue and HBSS (specifically, 50 microliter of trypan blue+40 microliter of HBSS+10 microliter of cell solution were added to a microfuge tube and mixed). Ten microliters of the diluted cells were then applied to the hemocytometer, and the number of viable PBMC were determined by microscopy.
The PBMC sample was then resuspended in 96-well plates at a concentration of 8×10^5 cells/well in 0.1 mL of AIM-V medium. Each compound was solubilized in dimethyl sulfoxide (DMSO) to create a 3 mM stock solution. The stock solution was then further diluted with AIM-V medium to prepare the serial dilutions. The diluted compound (100 microliters) was then transferred to the PBMCs to produce testing sets with final compound concentrations of either 30, 10, 3.3, 1.1, 0.37, 0.12, 0.04, 0.01 micromolar (testing set A); 30, 10, 3.3, 1.1, 0.37, 0.12, 0.04 micromolar (testing set B); 100, 33.3, 11.1, 3.7, 1.2, 0.4 micromolar (testing set C); or 3.0, 1.0, 0.33, 0.11, 0.037, 0.012, 0.004, 0.0014 micromolar (testing set D). The plates also had both positive and negative controls. The negative control wells contained only AIM-V medium with no example compound. The positive control wells contained a control set of imiquimod serially diluted to concentrations of either 30, 10, 3.3, 1.1, 0.37, 0.12, 0.04, 0.01 micromolar (control set A); 30, 10, 3.3, 1.1, 0.37, 0.12, 0.04 micromolar (control set B); 100, 33.3, 11.1, 3.7, 1.2, 0.4 micromolar (control set C); or 3.0, 1.0, 0.33, 0.11, 0.037, 0.012, 0.004, 0.0014 micromolar (control set D). The concentrations used in the control set were selected to match the concentrations used in the testing set. The plates were then cultured at 37° C./5% CO2 for 21-24 hours. Cell-free supernatants were harvested by centrifuging the 96-well plates at 2100 rpm, 23° C. for 10 minutes. Approximately 160 microliters of the supernatant were then stored in a NUNC 96-well plate, covered with the compression cap and stored at −80° C. until the cytokine analysis was done.
IFN-alpha cytokine levels (picograms/mL) were measured by ELISA (human IFN-alpha, pan specific, Mabtech, Cincinnati, OH). […]

[1] = ELISA, read-out: MEC to Induce Cytokine IFN-alpha
[2] = multiplex bead assay, read-out: MEC to Induce Cytokine IFN-gamma

Structure (SMILES)	minimal effective concentration [1]	MEC to Induce Cytokine TNF-alpha (multiplex bead assay)	minimal effective concentration [2]	activity toward cytokine production (statement in the description)
CCOC[C@H](C(C)C)n1cnc2c(N)nc3ccccc3c21 [Example 1, 1-[(1S)-1-(ethoxymethyl)-2-methyl-propyl]imidazo[4,5-c]quinolin-4-amine]	≤ 0.04 µM	≤0.04 µM	≤ 0.04 µM	–
CCOC[C@@H](C(C)C)n1c(C)nc2c(N)nc3ccccc3c21 [Example 4, 1-[(1R)-1-(ethoxymethyl)-2-methyl-propyl]-2-methyl-imidazo[4,5-c]quinolin-4-amine]	10 µM	10 µM	> 30 µM	–
CCOC[C@@H](n1cnc2c(N)nc3ccccc3c21)C(C)(C)C [Example 9, 1-[(1S)-1-(ethoxymethyl)-2,2-dimethyl-propyl]imidazo[4,5-c]quinolin-4-amine]	0.004 µM	0.004 µM	0.012 µM	–
CCOC[C@H](n1cnc2c(N)nc3ccccc3c21)C(C)(C)C [Example 10, 1-[(1R)-1-(ethoxymethyl)-2,2-dimethyl-propyl]imidazo[4,5-c]quinolin-4-amine]	3 µM	3.0 µM	3 µM	–
CCOC[C@@H](n1cnc2c(N)nc3ccccc3c21)C(O)(CC)CC [Example 12, (2R)-2-(4-aminoimidazo[4,5-c]quinolin-1-yl)-1-ethoxy-3-ethyl-pentan-3-ol]	0.04 µM	–	0.12 µM	–
CCOC[C@@H](n1c(C)nc2c(N)nc3ccccc3c21)C(C)(C)O [Example 7, (3R)-3-(4-amino-2-methyl-imidazo[4,5-c]quinolin-1-yl)-4-ethoxy-2-methyl-butan-2-ol]	0.12 µM	–	0.37 µM	–
CCOC[C@H](C(C)C)n1c(C)nc2c(N)nc3ccccc3c21 [Example 3, 1-[(1S)-1-(ethoxymethyl)-2-methyl-propyl]-2-methyl-imidazo[4,5-c]quinolin-4-amine]	0.37 µM	0.37 µM	1.1 µM	–
CCOC[C@@H](n1c(CC)nc2c(N)nc3ccccc3c21)C(C)(C)O [Example 8, (3R)-3-(4-amino-2-ethyl-imidazo[4,5-c]quinolin-1-yl)-4-ethoxy-2-methyl-butan-2-ol]	10 µM	–	3.3 µM	–
CCOC[C@@H](n1cnc2c(N)nc3ccccc3c21)C(C)(C)O [Example 5, (3R)-3-(4-aminoimidazo[4,5-c]quinolin-1-yl)-4-ethoxy-2-methyl-butan-2-ol]	0.12 µM	0.04 µM	0.12 µM	–
CCOC[C@@H](C(C)C)n1cnc2c(N)nc3ccccc3c21 [Example 2, 1-[(1R)-1-(ethoxymethyl)-2-methyl-propyl]imidazo[4,5-c]quinolin-4-amine]	3.3 µM	3.3 µM	> 30 µM	–
CCOC[C@H](n1cnc2c(N)nc3ccccc3c21)C(C)(C)O [Example 6, (3S)-3-(4-aminoimidazo[4,5-c]quinolin-1-yl)-4-ethoxy-2-methyl-butan-2-ol]	> 100 µM	>100 µM	> 100 µM	inactive toward cytokine production
COC[C@@H](n1cnc2c(N)nc3ccccc3c21)C(C)(C)C [Example 11, 1-[(1S)-1-(methoxymethyl)-2,2-dimethyl-propyl]imidazo[4,5-c]quinolin-4-amine]	≤ 0.4 µM	≤0.4 µM	≤ 0.4 µM	–
CCO[C@@H](C)[C@@H](n1cnc2c(N)nc3ccccc3c21)C(C)(C)O [Example 13, (3R,4S)-3-(4-aminoimidazo[4,5-c]quinolin-1-yl)-4-ethoxy-2-methyl-pentan-2-ol]	3.3 µM	10 µM	10 µM	–
